From US5072032A, “Preparation and use of thiophosphonates and thio-analogues of phosphonoformic acid” (priority 1989, dated 1991)
Read-outs that look alike come from different tables or passages of the source.

What was measured:
HSV-1 DNA polymerase = molecular target: T1, HSV-1 DNA polymerase (Human herpesvirus 1, UniProt P04293); test: Viral polymerase inhibition, HSV-1; format: biochemical
T1 construct: made in house
Description: Viral DNA polymerases (HSV-1, HSV-2, EBV) were purified by previously published methods (Derce, D. K. F. Bastow, and Y. C. Cheng (1982) J. Boil. Chem. 257:10251-10260; Ostrander, M., and Y. C. Cheng (1980) Biochim. Biophys. Acta 609:232-245; Tan, R. S., A. Datta. and Y. C. Cheng (1982) J. Virol. 44:893-899). These procedures generally included sequential chromatography on DEAE-cellulose. HIV reverse transcriptase was purified by antibody affinity column chromatography as descrbed (Starnes. M. C. and Y. C. Cheng (1989) J. Biol. Chem. 264:7073-7077). The purified enzymes were dialyzed against and stored in 50 mM Tris-HCl (pH 7.5) containing 1 mM each of DTT, EDTA and PMSF plus 30% glycerol. Mammalian DNA polymerases alpha, beta, gamma, and delta were partially purified from K562 celles (chronic myelogenous leukemia tissue culture line). Briefly, washed cell pellets were extracted and passed throgh DEAE-cellulose in the presence of 300 mM KPO4 (pH 7.5) as previously described (Starnes, M. C., and Y. C. Cheng (1987) J. Biol. Chem 282:988-981) to remove DNA. The column flow-through fractions were dialyzed against buffer which contained 50 mM Tris-HCl (pH 7.5), and fractionated on a single-stranded DNA-cellulose column with a 0-1M KCl gradient. […]

human DNA polymerase δ = test: Human DNA polymerase inhibition, delta; format: biochemical; details: Pol δ, "activated" DNA; for IC50: read-out: ID50 (the source's name)
Description: (§1) Viral DNA polymerases (HSV-1, HSV-2, EBV) were purified by previously published methods (Derce, D. K. F. Bastow, and Y. C. Cheng (1982) J. Boil. Chem. 257:10251-10260; Ostrander, M., and Y. C. Cheng (1980) Biochim. Biophys. Acta 609:232-245; Tan, R. S., A. Datta. and Y. C. Cheng (1982) J. Virol. 44:893-899). These procedures generally included sequential chromatography on DEAE-cellulose. HIV reverse transcriptase was purified by antibody affinity column chromatography as descrbed (Starnes. M. C. and Y. C. Cheng (1989) J. Biol. Chem. 264:7073-7077). The purified enzymes were dialyzed against and stored in 50 mM Tris-HCl (pH 7.5) containing 1 mM each of DTT, EDTA and PMSF plus 30% glycerol. Mammalian DNA polymerases alpha, beta, gamma, and delta were partially purified from K562 celles (chronic myelogenous leukemia tissue culture line). Briefly, washed cell pellets were extracted and passed throgh DEAE-cellulose in the presence of 300 mM KPO4 (pH 7.5) as previously described (Starnes, M. C., and Y. C. Cheng (1987) J. Biol. Chem 282:988-981) to remove DNA. The column flow-through fractions were dialyzed against buffer which contained 50 mM Tris-HCl (pH 7.5), and fractionated on a single-stranded DNA-cellulose column with a 0-1M KCl gradient.
In accordance with the teaching of the present invention similar enzyme inhibition assays were also conducted with respect to mammalian enzymes, more particularly, human DNA polymerase.

uninfected H9 cells = test: Toxicity: cell density of uninfected H9 cultures; format: cell-based; details: 3 days
Method: (§2) In addition to testing the activity of TPFA against HIV enzyme, the activity against the virus itself was also determined in accordance with the following protocol. The experimental protocol involved incubatino of H9 lymphocytes (3.5×10^6 cells/ml) in the presence or absence of HIV-1 (HTLV-IIIB) for one hour at 37° C. Cells were washed thoroughly to remove unabsorbed virions and re-suspended at 4×10^5 cells/ml in culture medium. Aliquots (1 ml) were placed in wells of 24 well culture plates containing any equal volume of test compound (diluted in culture medium). After incubation for three days at 37° C., cell density of uninfected cultures was determined to assess toxicity of the test compound. A p24 antigen capture was used to determine the level of HIV infection in HIV treated cultures. The ability of test compounds to inhibit HIV replication was measured at different concentrations relative to infected, untreated cultures. Test compounds were considered to be active if p24 levels were <70% of infected, untreated cultures. Cytotoxicity in uninfect4ed H9 cells was not detected.

[1] = Toxicity: cell density of uninfected H9 cultures; format: cell-based; details: human, h9 cells, 3 days, read-out: Cell Survival (%)
Method: as §2

HSV-2 DNA polymerase = molecular target: T2, HSV-2 DNA polymerase (Human herpesvirus 2, UniProt P89453); test: Viral polymerase inhibition, HSV-2; format: biochemical
T2 construct: made in house
T2 sequence (P89453 whole entry): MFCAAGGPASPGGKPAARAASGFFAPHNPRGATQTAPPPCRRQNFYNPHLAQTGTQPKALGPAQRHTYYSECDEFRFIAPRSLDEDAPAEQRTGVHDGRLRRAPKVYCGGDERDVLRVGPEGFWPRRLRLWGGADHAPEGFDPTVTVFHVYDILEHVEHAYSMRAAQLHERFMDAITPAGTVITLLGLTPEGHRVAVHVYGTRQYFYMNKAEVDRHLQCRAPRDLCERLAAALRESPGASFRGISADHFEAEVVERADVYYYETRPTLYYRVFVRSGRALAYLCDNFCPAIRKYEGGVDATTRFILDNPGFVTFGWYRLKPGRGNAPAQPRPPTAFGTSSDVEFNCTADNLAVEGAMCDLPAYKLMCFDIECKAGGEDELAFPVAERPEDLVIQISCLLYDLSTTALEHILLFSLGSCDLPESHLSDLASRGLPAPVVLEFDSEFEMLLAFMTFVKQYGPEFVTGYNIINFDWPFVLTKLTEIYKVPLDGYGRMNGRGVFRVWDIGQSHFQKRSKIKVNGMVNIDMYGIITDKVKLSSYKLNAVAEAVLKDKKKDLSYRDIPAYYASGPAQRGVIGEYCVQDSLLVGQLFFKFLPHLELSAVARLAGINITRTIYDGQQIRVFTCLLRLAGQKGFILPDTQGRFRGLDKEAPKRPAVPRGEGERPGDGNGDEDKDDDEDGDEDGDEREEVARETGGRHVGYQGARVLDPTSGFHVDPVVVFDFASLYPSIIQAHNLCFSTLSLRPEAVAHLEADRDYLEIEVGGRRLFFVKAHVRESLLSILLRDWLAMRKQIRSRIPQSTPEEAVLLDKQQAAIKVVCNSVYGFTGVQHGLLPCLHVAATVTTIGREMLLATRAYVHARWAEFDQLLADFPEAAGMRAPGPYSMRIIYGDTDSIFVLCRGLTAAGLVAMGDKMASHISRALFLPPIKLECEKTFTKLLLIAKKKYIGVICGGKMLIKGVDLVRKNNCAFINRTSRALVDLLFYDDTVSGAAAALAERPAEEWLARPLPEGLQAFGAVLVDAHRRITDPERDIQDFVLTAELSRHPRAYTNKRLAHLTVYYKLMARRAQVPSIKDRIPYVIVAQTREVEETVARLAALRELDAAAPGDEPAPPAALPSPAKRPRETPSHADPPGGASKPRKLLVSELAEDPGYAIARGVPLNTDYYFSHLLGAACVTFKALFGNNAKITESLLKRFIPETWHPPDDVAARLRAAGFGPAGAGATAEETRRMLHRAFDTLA
Description: as §1
(§3) Standard assays were run at 37° C. and contained: 50 mM Tris, pH b 8.0, 0.5 mM DTT, 8 mM MgCl2, 100 μg/mL BSA, 150 μg/mL gapped calf thymus DNA, 100 μM each dATP, dCTP, dGTP, 10 .parallel.M [^3 H]-dTTP, and 1-5 .parallel.L enzyme in a final volume of 50 .parallel.L. Modified assays for pH dependence inhibition studies with PFA (1) and α--oxo phosphonates (4 and 5) contained 50 mM Hepes, pH 8.2-6.5, 8 mM MgCl2, 100 mM KCl, 100 μg/ml BSA, 0.5 A260 units/ml of poly(rA).(dT)10, 100 μM [^3 H]dTTP, and 1.5 .parallel.L enzyme in a final volume of 50 μL. Samples were processed as described above.

EBV DNA polymerase = molecular target: T3, EBV DNA polymerase (Epstein-Barr virus, UniProt P03198); test: Viral polymerase inhibition, EBV; format: biochemical
T3 construct: made in house
T3 sequence (P03198 whole entry): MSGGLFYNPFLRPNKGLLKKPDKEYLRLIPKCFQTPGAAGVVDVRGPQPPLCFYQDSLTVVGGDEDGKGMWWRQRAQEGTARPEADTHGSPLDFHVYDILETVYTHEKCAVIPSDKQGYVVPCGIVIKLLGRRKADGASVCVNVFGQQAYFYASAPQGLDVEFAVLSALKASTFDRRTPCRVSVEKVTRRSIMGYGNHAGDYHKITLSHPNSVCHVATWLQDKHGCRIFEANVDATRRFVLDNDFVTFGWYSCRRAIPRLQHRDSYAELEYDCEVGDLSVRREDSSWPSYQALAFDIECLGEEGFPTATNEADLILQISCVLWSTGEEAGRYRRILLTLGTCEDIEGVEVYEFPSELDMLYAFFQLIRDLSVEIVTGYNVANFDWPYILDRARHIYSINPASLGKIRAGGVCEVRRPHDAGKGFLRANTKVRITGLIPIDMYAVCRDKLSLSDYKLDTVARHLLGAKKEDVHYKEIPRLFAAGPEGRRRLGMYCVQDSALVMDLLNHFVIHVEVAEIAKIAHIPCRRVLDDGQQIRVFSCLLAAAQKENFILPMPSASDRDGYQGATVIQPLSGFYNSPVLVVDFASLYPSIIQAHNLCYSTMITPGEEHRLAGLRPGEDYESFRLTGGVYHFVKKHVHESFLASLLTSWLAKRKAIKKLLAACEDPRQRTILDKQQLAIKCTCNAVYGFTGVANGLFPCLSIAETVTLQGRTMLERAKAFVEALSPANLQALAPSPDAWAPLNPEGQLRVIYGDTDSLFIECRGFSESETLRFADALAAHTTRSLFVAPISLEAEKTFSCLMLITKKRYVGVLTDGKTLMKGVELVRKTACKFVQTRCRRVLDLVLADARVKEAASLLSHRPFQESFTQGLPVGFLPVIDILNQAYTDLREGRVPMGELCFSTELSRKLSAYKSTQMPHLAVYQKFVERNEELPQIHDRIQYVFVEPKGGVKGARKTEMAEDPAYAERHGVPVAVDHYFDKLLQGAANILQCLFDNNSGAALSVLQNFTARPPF
Description: as §1, §3

HIV-1 (HTLV-IIIB) = test: HIV inhibition in cell culture, p24 antigen capture assay in H9 lymphocytes; format: cell-based
Method: as §2

[2] = molecular target: T4, HIV-1 reverse transcriptase (Human immunodeficiency virus type 1 group M subtype B, UniProt P04585); test: HIV-1 reverse transcriptase assay (viral polymerase inhibition); format: biochemical
T4 construct: made in house

HSV-1 = details: reported by Hutchinson et al.; cited from earlier work
[3] = Human immunodeficiency virus 1, IIIB, H9, 72 h, read-out: p24 Ave (%)

T1 sequence (P04293 whole entry): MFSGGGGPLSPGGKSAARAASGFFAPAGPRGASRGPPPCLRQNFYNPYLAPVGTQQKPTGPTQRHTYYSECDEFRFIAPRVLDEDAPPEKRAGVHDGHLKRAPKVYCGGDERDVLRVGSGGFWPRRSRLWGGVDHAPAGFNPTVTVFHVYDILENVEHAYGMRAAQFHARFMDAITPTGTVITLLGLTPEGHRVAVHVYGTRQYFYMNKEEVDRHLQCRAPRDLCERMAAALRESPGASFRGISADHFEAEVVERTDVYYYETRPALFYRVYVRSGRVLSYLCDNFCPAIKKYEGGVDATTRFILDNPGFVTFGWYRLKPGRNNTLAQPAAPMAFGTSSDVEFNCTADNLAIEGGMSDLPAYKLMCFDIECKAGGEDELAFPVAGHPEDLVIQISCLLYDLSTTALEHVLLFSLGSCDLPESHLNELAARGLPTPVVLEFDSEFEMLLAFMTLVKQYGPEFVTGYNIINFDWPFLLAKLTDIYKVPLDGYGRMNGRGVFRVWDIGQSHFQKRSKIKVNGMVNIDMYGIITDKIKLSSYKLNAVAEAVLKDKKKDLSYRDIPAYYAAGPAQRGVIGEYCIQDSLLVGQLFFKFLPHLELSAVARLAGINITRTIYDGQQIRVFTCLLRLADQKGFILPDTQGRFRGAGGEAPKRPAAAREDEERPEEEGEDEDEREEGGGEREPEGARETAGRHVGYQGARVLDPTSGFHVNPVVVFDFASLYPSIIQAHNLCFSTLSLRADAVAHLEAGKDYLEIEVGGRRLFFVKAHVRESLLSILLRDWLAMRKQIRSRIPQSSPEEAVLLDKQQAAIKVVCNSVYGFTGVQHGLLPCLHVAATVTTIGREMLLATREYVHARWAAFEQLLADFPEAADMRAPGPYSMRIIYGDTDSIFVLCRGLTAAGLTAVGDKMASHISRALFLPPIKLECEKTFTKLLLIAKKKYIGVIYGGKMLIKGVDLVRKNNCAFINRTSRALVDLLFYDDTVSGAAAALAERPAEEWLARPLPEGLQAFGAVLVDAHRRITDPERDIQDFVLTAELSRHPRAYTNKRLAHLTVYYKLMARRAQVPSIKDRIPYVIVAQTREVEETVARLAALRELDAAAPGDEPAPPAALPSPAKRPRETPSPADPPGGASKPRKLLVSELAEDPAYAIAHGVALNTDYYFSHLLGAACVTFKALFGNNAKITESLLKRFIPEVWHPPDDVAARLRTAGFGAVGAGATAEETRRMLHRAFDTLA

## O=C(O)P(O)(O)=S [TPFA, thiophosphonoformic acid]
HSV-1 DNA polymerase
  IC50: 11.8 µM
Human DNA polymerase δ
  % Control at 100 μM ± S.D.: 69 ± 6%
  IC50: > 100 µM
Uninfected H9 cells; drug conc. 0.1 μg/mL
  Toxicity: non-T
Uninfected H9 cells; drug conc. 0.5 μg/mL
  Toxicity: non-T
Uninfected H9 cells; drug conc. 2 μg/mL
  Toxicity: non-T
Uninfected H9 cells; drug conc. 10 μg/mL
  Toxicity: non-T
Uninfected H9 cells; drug conc. 50 μg/mL
  Toxicity: non-T
Uninfected H9 cells; drug conc. 200 μg/mL
  Toxicity: non-T
[1]; drug conc. 0.1 μg/mL
  viability at 72 h: 113%
[1]; drug conc. 0.5 μg/mL
  viability at 72 h: 113%
[1]; drug conc. 2 μg/mL
  viability at 72 h: 110%
[1]; drug conc. 10 μg/mL
  viability at 72 h: 104%
[1]; drug conc. 50 μg/mL
  viability at 72 h: 93%
[1]; drug conc. 200 μg/mL
  viability at 72 h: 84%
HSV-2 DNA polymerase
  IC50: 11.3 µM
HSV-2 DNA polymerase; HSV-2 enzyme, ratio of ID50 values of Table I
  effectiveness of TPFA relative to PFA: fifteen to twenty times less effective
EBV DNA polymerase
  IC50: 70 µM
EBV DNA polymerase; EBV enzyme, ratio of ID50 values of Table I
  effectiveness of TPFA relative to PFA: more than seventy times less effective
HIV-1 (HTLV-IIIB); [3]
  activity at 0.1 µg/mL: 139%
  activity at 0.5 µg/mL: 117%
  activity at 2 µg/mL: 90%
  activity at 10 µg/mL: 35%
  activity at 50 µg/mL: 0%
  activity at 200 µg/mL: -3%
HIV-1 (HTLV-IIIB); drug conc. 10 μg/mL
  Inhibition Score: ** (**25-49% control p24)
HIV-1 (HTLV-IIIB); drug conc. 50 μg/mL
  Inhibition Score: *** (***<25% control p24)
HIV-1 (HTLV-IIIB); drug conc. 200 μg/mL
  Inhibition Score: *** (***<25% control p24)
[2]
  IC50: 1 µM
HSV-1
  relative ID50 values with respect to HSV-1: 9

## O=C(O)P(=O)(O)O [PFA, phosphonoformic acid]
HSV-1 DNA polymerase; HSV-1, "activated" DNA, read-out: ID50 (the source's name)
  IC50: 0.7 µM
Human DNA polymerase δ
  % Control at 100 μM ± S.D.: 36 ± 3%
  IC50: 71 µM
Uninfected H9 cells; drug conc. 1.9 μg/mL
  Toxicity: non-T
Uninfected H9 cells; drug conc. 7.5 μg/mL
  Toxicity: non-T
Uninfected H9 cells; drug conc. 30 μg/mL
  Toxicity: non-T
Uninfected H9 cells; drug conc. 120 μg/mL
  Toxicity: non-T
[1]; drug conc. 1.9 μg/mL
  viability at 72 h: 98%
[1]; drug conc. 7.5 μg/mL
  viability at 72 h: 96%
[1]; drug conc. 30 μg/mL
  viability at 72 h: 92%
[1]; drug conc. 120 μg/mL
  viability at 72 h: 102%
HSV-2 DNA polymerase; HSV-2, "activated" DNA, read-out: ID50 (the source's name)
  IC50: 0.7 µM
EBV DNA polymerase; EBV, "activated" DNA, read-out: ID50 (the source's name)
  IC50: 1 µM
HIV-1 (HTLV-IIIB); Human immunodeficiency virus 1, IIIB, H9, 72 h, drug conc. 1.9 μg/mL, % of infected untreated control p24, read-out: p24 Ave (%)
  activity at 1.9 µg/mL: 88%
HIV-1 (HTLV-IIIB); Human immunodeficiency virus 1, IIIB, H9, 72 h, drug conc. 7.5 μg/mL, % of infected untreated control p24, read-out: p24 Ave (%)
  activity at 7.5 µg/mL: 35%
HIV-1 (HTLV-IIIB); Human immunodeficiency virus 1, IIIB, H9, 72 h, drug conc. 30 μg/mL, % of infected untreated control p24, read-out: p24 Ave (%)
  activity at 30 µg/mL: 10%
HIV-1 (HTLV-IIIB); Human immunodeficiency virus 1, IIIB, H9, 72 h, drug conc. 120 μg/mL, % of infected untreated control p24, read-out: p24 Ave (%)
  activity at 120 µg/mL: -2%
HIV-1 (HTLV-IIIB); drug conc. 7.5 μg/mL
  Inhibition Score: ** (**25-49% control p24)
HIV-1 (HTLV-IIIB); drug conc. 30 μg/mL
  Inhibition Score: *** (***<25% control p24)
HIV-1 (HTLV-IIIB); drug conc. 120 μg/mL
  Inhibition Score: *** (***<25% control p24)
[2]
  IC50: 0.7 µM
HSV-1
  relative ID50 values with respect to HSV-1: 12
